Description: The solubility of lactide in different solvents was investigated.

## CC1OC(=O)C(C)OC1=O (racemic) [lactide, 3,6-dimethyl-1,4-dioxan-2,5-dione]
  Solubility of lactide in a n-BuOH/acetone system: 1.44 g
  Solubility of lactide in different solvents, rank order: Acetone>>n-BuOH>t-BuOH
